The text below walks through data of patent US20220227759A1, “AMORPHOUS PI3K INHIBITOR AND PHARMACEUTICAL COMPOSITION COMPRISING SAME” (BORYUNG PHARMACEUTICAL CO., LTD, priority 2019, published 2022).

The data set can be described thus: Pharmacokinetic (PK) test. The data set is classed as in vivo. Conditions: beagle dog, 100 mg, PO, capsule. The protocol: A pharmacokinetic (PK) experiment was performed on the amorphous compound of Example 1.
The powder of the amorphous compound of Example 1 was filled into a capsule in an amount of 100 mg, and the capsule was orally administered to a beagle dog at 100 mg once a day, and then the biokinetics of the drug was confirmed.
Specifically, 100 mg of the amorphous compound was orally administered to the beagle dog, and blood was collected at a predetermined time, so as to measure a concentration of (S)-4-((1-(4,8-dichloro-1-oxo-2-phenyl-1,2-dihydroisoquinoline-3-yl)ethyl)amino)pyrido[2,3-d]pyrimidine-5(8H)-one. With respect to pharmacokinetic parameters, the BA Calc 2007 program was used to calculate an area under the plasma concentration-time curve from dosing time to final plasma concentration quantification time t (AUCt), an area under the plasma concentration-time curve from dosing time to infinite time (AUCi), peak plasma concentration (Cmax), time for peak plasma concentration (Tmax), and terminal elimination half-life (t1/2). As a result, a significance between substances was confirmed by Student t-test (SPSS) at a 95% confidence interval, and the results thereof are shown in table 4 below.

For the molecule `C[C@H](Nc1ncnc2[nH]ccc(=O)c12)c1c(Cl)c2cccc(Cl)c2c(=O)n1-c1ccccc1` [Example 1, (S)-4-((1-(4,8-dichloro-1-oxo-2-phenyl-1,2-dihydroisoquinoline-3-yl)ethyl)amino)pyrido[2,3-d]pyrimidin-5(8H)-one], the blood concentration entry was “high blood concentration”.
